Reference: patent publication US11180504B2 (ORCHID PHARMA LTD., priority 2016, dated 2021)
Converted amounts (≈) assume the structure as drawn. Like-named read-outs stand apart in the source and are kept apart here.

What was measured:
[1] = tested on: methicillin-sensitive Staphylococcus aureus; test: MIC by broth micro-dilution (CLSI), methicillin-sensitive S. aureus; format: cell-based; conditions: MSSA S. aureus ATCC29213
[2] = tested on: carbapenem sensitive Pseudomonas aeruginosa; test: MIC by broth micro-dilution (CLSI), carbapenem sensitive P. aeruginosa; format: cell-based
[3] = tested on: carbapenem sensitive Escherichia coli; test: MIC by broth micro-dilution (CLSI), carbapenem sensitive E. coli; format: cell-based
[4] = tested on: carbapenemase producing K. pneumoniae; test: MIC by broth micro-dilution (CLSI), carbapenemase producing K. pneumoniae; format: cell-based, Klebsiella pneumoniae
[5] = Staphylococcus aureus, ATCC 29213 / MSSA, read-out: MIC
[6] = Pseudomonas aeruginosa, ATCC27853, Meropenem susceptible P. aeruginosa ATCC27853, read-out: MIC
[7] = Escherichia coli, ATCC25922, ESBL −ve E. coli ATCC25922, read-out: MIC
[8] = Klebsiella pneumoniae, ATCCBAA1705, KPC-2 K. pneumoniae ATCC BAA-1705, read-out: MIC
[9] = Meropenem susceptible P. aeruginosa ATCC27853
[10] = KPC-2 K. pneumoniae ATCC BAA-1705

| SMILES | MIC [1, 5] [µg/mL] | MIC [2, 6] [µg/mL] | MIC [3, 7] [µg/mL] | MIC [4, 8] [µg/mL] | MIC [1] [µg/mL] | MIC [2, 9] [µg/mL] | MIC ([3]; ESBL −ve E. coli ATCC25922) [µg/mL] | MIC [4, 10] [µg/mL] |
| --- | --- | --- | --- | --- | --- | --- | --- | --- |
| C[C@@H](NC(=O)Cn1cnnn1)[C@H]1C(=O)N2C(C(=O)O)=C(S[C@@H]3CN[C@H](C(=O)NC[C@@H]4CCNC4)C3)[C@H](C)[C@H]12 [Example 513, (4R,5S,6R)-6-((R)-1-(2-(1H-tetrazol-1-yl)acetamido)ethyl)-4-methyl-7-oxo-3-((3S,5S)-5-((R)-pyrrolidin-3-ylmethylcarbamoyl)pyrrolidin-3-ylthio)-1-azabicyclo[3.2.0]hept-2-ene-2-carboxylic acid] | 4 (≈ 7.3 µM) | 16 (≈ 29.2 µM) | 0.25 (≈ 0.457 µM) | 1 (≈ 1.83 µM) | – | – | – | – |
| C[C@@H](NC(=O)Cn1cnnn1)[C@H]1C(=O)N2C(C(=O)O)=C(S[C@@H]3CN[C@H](C(=O)N4C[C@@H](O)[C@H](O)C4)C3)[C@H](C)[C@H]12 [Example 396, (4R,5S,6R)-6-((R)-1-(2-(1H-tetrazol-1-yl)acetamido)ethyl)-3-((3S,5S)-5-((3R,4R)-3,4-dihydroxypyrrolidine-1-carbonyl)pyrrolidin-3-ylthio)-methyl-7-oxo-1-azabicyclo[3.2.0]hept-2-ene-2-carboxylic acid] | 4 (≈ 7.26 µM) | 4 (≈ 7.26 µM) | 0.125 (≈ 0.227 µM) | 1 (≈ 1.82 µM) | – | – | – | – |
| C[C@@H](NC(=O)C(F)F)[C@H]1C(=O)N2C(C(=O)O)=C(S[C@@H]3CN[C@H](CNS(=O)(=O)N4CC[C@H](N)C4)C3)[C@H](C)[C@H]12 [Example 237] | 1 (≈ 1.76 µM) | 128 (≈ 226 µM) | 2 (≈ 3.53 µM) | 4 (≈ 7.06 µM) | – | – | – | – |
| C[C@@H](NC(=O)Cn1cnnn1)[C@H]1C(=O)N2C(C(=O)O)=C(S[C@@H]3CN[C@H](C(=O)N4CCn5c(cnc5N)C4)C3)[C@H](C)[C@H]12 [Example 481, (4R,5S,6R)-6-((R)-1-(2-(1H-tetrazol-1-yl)acetamido)ethyl)-3-((3S,5S)-5-(3-amino-5,6,7,8-tetrahydroimidazo[1,5-a]pyrazine-7-carbonyl)pyrrolidin-3-ylthio)-4-methyl-7-oxo-1-azabicyclo[3.2.0]hept-2-ene-2-carboxylic acid] | 2 (≈ 3.42 µM) | 2 (≈ 3.42 µM) | 0.125 (≈ 0.213 µM) | 2 (≈ 3.42 µM) | – | – | – | – |
| C[C@@H](NC(=O)Cn1cnnn1)[C@H]1C(=O)N2C(C(=O)O)=C(S[C@@H]3CN[C@H](C(=O)N4CCC5(CCNC5)C4)C3)[C@H](C)[C@H]12 (single isomer, unassigned) [Example 493] | – | – | – | – | 2 (≈ 3.49 µM) | 0.5 (≈ 0.872 µM) | 0.125 (≈ 0.218 µM) | 1 (≈ 1.74 µM) |
| C[C@@H](NC(=O)Cn1cnnn1)[C@H]1C(=O)N2C(C(=O)O)=C(S[C@@H]3CN[C@H](CNC(=N)N)C3)[C@H](C)[C@H]12 [Example 589, (4R,5S,6R)-6-((R)-1-(2-(1H-tetrazol-1-yl)acetamido)ethyl)-3-((3S,5S)-5-(guanidinomethyl)pyrrolidin-3-ylthio)-4-methyl-7-oxo-1-azabicyclo[3.2.0]hept-2-ene-2-carboxylic acid] | 4 (≈ 8.12 µM) | 16 (≈ 32.5 µM) | 0.5 (≈ 1.02 µM) | 2 (≈ 4.06 µM) | – | – | – | – |
| C[C@@H](NC(=O)CNC(=N)N)[C@H]1C(=O)N2C(C(=O)O)=C(S[C@@H]3CN[C@H](C(=O)N4CC[C@@H](N)C4)C3)[C@H](C)[C@H]12 [Example 242] | 16 (≈ 30.6 µM) | 8 (≈ 15.3 µM) | 2 (≈ 3.83 µM) | 2 (≈ 3.83 µM) | – | – | – | – |
| C[C@@H](NC(=O)Cn1cnnn1)[C@H]1C(=O)N2C(C(=O)O)=C(S[C@@H]3CN[C@H](C(=O)N4CC(N)C(CO)C4)C3)[C@H](C)[C@H]12 (single isomer, unassigned) [Example 587] | – | – | – | – | 4 (≈ 7.1 µM) | 2 (≈ 3.55 µM) | 0.25 (≈ 0.444 µM) | 2 (≈ 3.55 µM) |
| C[C@@H](NC(=O)Cn1cnnn1)[C@H]1C(=O)N2C(C(=O)O)=C(S[C@@H]3CN[C@H](C(=O)N4CCC(CNC(=O)CN)CC4)C3)[C@H](C)[C@H]12 [Example 422, (4R,5S,6R)-6-((R)-1-(2-(1H-tetrazol-1-yl)acetamido)ethyl)-3-((3S,5S)-5-(4-((2-aminoacetamido)methyl)piperidine-1-carbonyl)pyrrolidin-3-ylthio)-4-methyl-7-oxo-1-azabicyclo[3.2.0]hept-2-ene-2-carboxylic acid] | 4 (≈ 6.46 µM) | 4 (≈ 6.46 µM) | 0.25 (≈ 0.404 µM) | 2 (≈ 3.23 µM) | – | – | – | – |
| C[C@@H](NC(=O)Cn1cnnn1)[C@H]1C(=O)N2C(C(=O)O)=C(S[C@@H]3CN[C@H](C(=O)N4C[C@@]56CNCC5C[C@@H]4C6)C3)[C@H](C)[C@H]12 (stereo partly drawn) [Example 571, (4R,5S,6R)-6-((R)-1-(2-(1H-tetrazol-1-yl)acetamido)ethyl)-3-((3S,5S)-5-((1R,7R)-3,8-Diaza-tricyclo[5.2.1.01,5]decane-8-carbonyl)-pyrrolidin-3-ylthio)-4-methyl-7-oxo-1-azabicyclo[3.2.0]hept-2-ene-2-carboxylic acid] | 1 (≈ 1.71 µM) | 1 (≈ 1.71 µM) | 0.06 (≈ 0.102 µM) | 0.5 (≈ 0.854 µM) | – | – | – | – |
| C[C@@H](NC(=O)CC1CCCN1)[C@H]1C(=O)N2C(C(=O)O)=C(S[C@@H]3CN[C@H](C(=O)N4CCC(N)C4)C3)[C@H](C)[C@H]12 (stereo in doubt) [Example 509, (4R,5S,6R)-3-((3S,5S)-5-((R)-3-aminopyrrolidine-1-carbonyl)pyrrolidin-3-ylthio)-4-methyl-7-oxo-6-((R)-1-(2-((S)-pyrrolidin-2-yl)acetamido)ethyl)-1-azabicyclo[3.2.0]hept-2-ene-2-carboxylic acid] | 32 (≈ 59.8 µM) | 32 (≈ 59.8 µM) | 4 (≈ 7.48 µM) | 4 (≈ 7.48 µM) | – | – | – | – |
| C[C@@H](NC(=O)Cn1cnnn1)[C@H]1C(=O)N2C(C(=O)O)=C(S[C@@H]3CN[C@H](C(=O)N4CC(N)C(F)C4)C3)[C@H](C)[C@H]12 (single isomer, unassigned) [Example 479] | – | – | – | – | 8 (≈ 14.5 µM) | 16 (≈ 29 µM) | 0.25 (≈ 0.453 µM) | 2 (≈ 3.63 µM) |
| C[C@@H](NC(=O)Cn1cnnn1)[C@H]1C(=O)N2C(C(=O)O)=C(S[C@@H]3CN[C@H](C(=O)N4CC[C@@H](NC(=N)N)C4)C3)[C@H](C)[C@H]12 [Example 399, (4R,5S,6R)-6-((R)-1-(2-(1H-tetrazol-1-yl)acetamido)ethyl)-3-((3S,5S)-5-((R)-3-guanidinopyrrolidine-1-carbonyl)pyrrolidin-3-ylthio)-4-methyl-7-oxo-1-azabicyclo[3.2.0]hept-2-ene-2-carboxylic acid] | 2 (≈ 3.47 µM) | 8 (≈ 13.9 µM) | 0.125 (≈ 0.217 µM) | 2 (≈ 3.47 µM) | – | – | – | – |
| C[C@@H](NC(=O)Cn1cnnn1)[C@H]1C(=O)N2C(C(=O)O)=C(S[C@@H]3CN[C@H](C(=O)N4CCC[C@H]4CN)C3)[C@H](C)[C@H]12 [Example 464, (4R,5S,6R)-6-((R)-1-(2-(1-tetrazol-1-yl)acetamido)ethyl)-3-((3S,5S)-5-((S)-2-(aminomethyl)pyrrolidine-1-carbooyl)pyrrolidin-3-ylthio)-4-methyl-7-oxo-1-azabicyclo[3.2.0]hept-2-ene-2-carboxylic acid] | 4 (≈ 7.3 µM) | 16 (≈ 29.2 µM) | 1 (≈ 1.83 µM) | 4 (≈ 7.3 µM) | – | – | – | – |
| C[C@@H](NC(=O)/C(=N\OC(C)(C)C(=O)O)c1csc(N)n1)[C@H]1C(=O)N2C(C(=O)O)=C(S[C@@H]3CN[C@H](C(=O)N4CC[C@@H](N)C4)C3)[C@H](C)[C@H]12 [Example 514, (4R,5S,6R)-3-((3S,5S)-5-((R)-3-aminopyrrolidine-1-carbonyl)pyrrolidin-3-ylthio)-6-((R)-1-((Z)-2-(2-aminothiazol-4-yl)-2-(2-carboxypropan-2-yloxyimino)acetamido)ethyl)-4-methyl-7-oxo-1-azabicyclo[3.2.0]hept-2-ene-2-carboxylic acid] | 16 (≈ 23.6 µM) | 32 (≈ 47.1 µM) | 0.5 (≈ 0.737 µM) | 16 (≈ 23.6 µM) | – | – | – | – |
| C[C@@H](NC(=O)Cn1cnnn1)[C@H]1C(=O)N2C(C(=O)O)=C(S[C@@H]3CN[C@H](C(=O)N4CCN(C(=O)CCN)CC4)C3)[C@H](C)[C@H]12 [Example 419, (4R,5S,6R)-6-((R)-1-(2-(1H-tetrazol-1-yl)acetamido)ethyl)-3-((3S,5S)-5-(4-(3-aminopropanoyl)piperazine-1-carbonyl)pyrrolidin-3-ylthio)-4-methyl-7-oxo-1-azabicyclo[3.2.0]hept-2-ene-2-carboxylic acid] | 4 (≈ 6.61 µM) | 1 (≈ 1.65 µM) | 0.25 (≈ 0.413 µM) | 1 (≈ 1.65 µM) | – | – | – | – |
| C[C@@H](NC(=O)[C@H]1CS(=O)(=O)CN1)[C@H]1C(=O)N2C(C(=O)O)=C(S[C@@H]3CN[C@H](C(=O)N(C)C)C3)[C@H](C)[C@H]12 [Example 284] | 1 (≈ 1.89 µM) | 64 (≈ 121 µM) | 1 (≈ 1.89 µM) | 4 (≈ 7.55 µM) | – | – | – | – |
| C[C@@H](NC(=O)[C@@H](N)Cn1ncnn1)[C@H]1C(=O)N2C(C(=O)O)=C(S[C@@H]3CN[C@H](C(=O)N(C)C)C3)[C@H](C)[C@H]12 [Example 323, (4R,5S,6R)-6-((R) - 1-((S)-2-amino-3-(2H-tetrazol-2-yl)propanamido)ethyl)-3-((3S,5S)-5-(dimethylcarbamoyl)pyrrolidin-3-ylthio)-4-methyl-7-oxo-1-azabicyclo[3.2.0]hept-2-ene-2-carboxylic acid] | 16 (≈ 30.7 µM) | > 128 | 2 (≈ 3.83 µM) | 8 (≈ 15.3 µM) | – | – | – | – |
| C[C@@H](NC(=O)Cn1cnnn1)[C@H]1C(=O)N2C(C(=O)O)=C(S[C@@H]3CN[C@H](C(=O)N4CCC[C@@H](N)C4)C3)[C@H](C)[C@H]12 [Example 336, (4R,5S,6R)-6-((R) - 1-(2-(1H-tetrazol-1-yl)acetamido)ethyl)-3-((3S,5S)-5-((R)-3-aminopiperidine-1-carbonyl)pyrrolidin-3-ylthio)-4-methyl-7-oxo-1-azabicyclo[3.2.0]hept-2-ene-2-carboxylic acid] | 4 (≈ 7.3 µM) | 8 (≈ 14.6 µM) | 1 (≈ 1.83 µM) | 4 (≈ 7.3 µM) | – | – | – | – |
